Source: US20140193846A1, “NOVEL APOC-I ISOFORMS AND THEIR USE AS BIOMARKERS AND RISK FACTORS OF ATHEROSCLEROTIC DISEASE” (SCOTT & WHITE HEALTHCARE, priority 2011, published 2014)
“Also recorded” adds a separate entry of the source.

Assays:
[1] = test system: ASMC apoptosis mediated by HDL2 from subject 10; assay: Effect of N-SMase inhibitor on HDL2-induced ASMC apoptosis; assay type: cell-based, human; details: GW 4869 20 umol/L; for effect of inhibitor on HDL2-induced ASMC apoptosis (words): HDL2 from subject 10
Procedure: The same procedure described in detail by Kolmakova et al., Arterioscler. Thromb. Vasc. Biol., 24:264-269 (2004) was used. In brief, 10^3 human ASMC (Cambrex, Walkersville, Md.), were grown on sterilized glass cover slips in 6-well trays and treated with 2.5 μL of the various lipoprotein fractions per ml of medium. After 24 hour incubation, the medium was removed and cells were fixed and stained. The average ApoA-I concentration in the HDL2 and HDL3 fractions was ˜25 mg/dL and ˜40 mg/dL, respectively.
The effect of GW 4869 (20 umol/L), a noncompetitive inhibitor of N-SMase (Luberto C. et al., J. Biol Chem., 277(43):41128-41139 (2002)), on ASMC apoptosis mediated by HDL2 from subject 10 was studied and the results are shown in FIG. 9. […] The effect of HDL2 on apoptosis was also dose-dependent: when only 1 μl of HDL2 was used a 20.1% apoptosis of ASMC resulted as compared to ˜50% apoptosis when 2.5 μl HDL2 from the same subject was used.

[2] = test system: ICAM-1 expression by HAECs; assay: ICAM-1 expression by HAECs exposed to lipoprotein fractions; assay type: cell-based, human; details: HAECs pre-treated with inhibitor
[3] = test system: Human aortic endothelial cells (HAECs); assay: Nitric oxide (NO) release from HAECs incubated with HDL sub-fractions (DAF fluorescence); assay type: cell-based; details: HAECs pretreated, then incubated with apoptotic HDL2
Procedure: Human aortic endothelial cells (HAECs) were incubated with HDL sub-fractions for 12 h from a subject with apoptotic HDL2 (and CAD) and a subject with non-apoptotic HDL2 (without CAD). The cells were then stained with 4′5′-diamino flourescein 2-diacetate (DAF) (Invitrogen/Molecular Probes, CA), a fluorescent probe that allows for real-time detection of NO. Following incubation cells were washed with phosphate buffered saline (PBS) to remove unbound dye and mounted on a drop of 10% glycerol in PBS and photographed by fluorescence microscopy.

[4] = molecular target: T1, lecithin-cholesterol acyl transferase (LCAT) (Homo sapiens, UniProt P04180); details: % of the activity demonstrated by apoA-I; cited from earlier work
T1 sequence (P04180 25-440): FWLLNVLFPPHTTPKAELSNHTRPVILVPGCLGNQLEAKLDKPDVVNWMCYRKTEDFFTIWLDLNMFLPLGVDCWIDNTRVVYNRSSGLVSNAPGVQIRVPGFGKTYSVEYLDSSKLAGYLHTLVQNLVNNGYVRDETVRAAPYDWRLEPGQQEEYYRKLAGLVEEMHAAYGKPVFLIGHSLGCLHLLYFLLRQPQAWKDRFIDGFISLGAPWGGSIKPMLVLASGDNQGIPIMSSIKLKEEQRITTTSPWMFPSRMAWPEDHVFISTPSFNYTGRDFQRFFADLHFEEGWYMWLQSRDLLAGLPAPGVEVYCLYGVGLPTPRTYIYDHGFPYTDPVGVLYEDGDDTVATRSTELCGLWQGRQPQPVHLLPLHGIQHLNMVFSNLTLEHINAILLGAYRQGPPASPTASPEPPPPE

For `O=C(/C=C/c1ccc(/C=C/C(=O)Nc2ccc(C3=NCCN3)cc2)cc1)Nc1ccc(C2=NCCN2)cc1` [GW4869], the “number of apoptotic cells with HDL2 plus inhibitor” value ([1]; 1 μL HDL2 from subject 10, 20.1% without inhibitor) was 1.19%, the “effect of inhibitor on HDL2-induced ASMC apoptosis (words)” value [1] was “inhibits apoptosis” and the “effect of inhibitor on HDL2-induced ASMC apoptosis (words)” value ([1]; listed as GW 4869) was “almost completely prevented HDL2-induced apoptosis”.

In the case of `CNC(=N)NCCC[C@H](N)C(=O)O` [NMLA, NG monomethyl-L-arginine], the “effect of pre-treating HAECs on HDL2-increased ICAM-1 expression” value [2] is reported as “attenuated”.

For `S=C(S)N1CCCC1` [PDTC, Pyrrolidine dithiocarbamate], the “effect of pre-treating HAECs on HDL2-increased ICAM-1 expression” value [2] was “attenuated” and the “effect of pretreatment on HDL2-induced NO release from HAECs” value [3] was “markedly reduced NO release; also recorded: production of NO was blocked”.

In the case of “ApoC-I: mature 57 amino acid apolipoprotein C-I protein set forth in SEQ ID NO:6 (TPDVSSALDKLKEFGNTLEDKARELIBRINKQSELSAKMREWFSETFQKVKELKIDS; listed as Homo sapiens)”, the “LCAT stimulation, activity relative to apoA-I” value [4] is listed as “approximately 78%”.
